Data reported in patent publication US20240116922A1, “IMIDAZO[1,2-A]PYRIDINE DERIVATIVES AS IRAK4 INHIBITORS AND THEIR USE IN THE TREATMENT OF DISEASE” (BIOGEN MA INC., priority 2020, published 2024).
In brackets after ≈: the same amount, converted by molar mass. Counter-ions that a name gives are not always drawn.

Assays:
[1] = biological target: MDR1 (Homo sapiens (Human), UniProt P08183); assay: in vitro; details: MDCK-MDR1
[2] = biological target: IRAK4 (Homo sapiens (Human), UniProt Q9NWZ3); assay: IRAK4 MSD biochemical assay (2-hour 1 mM ATP); details: 0.1 nM IRAK4, 1 mM ATP, 2 hour at room temperature
Chain of IRAK4 (Q9NWZ3 whole entry): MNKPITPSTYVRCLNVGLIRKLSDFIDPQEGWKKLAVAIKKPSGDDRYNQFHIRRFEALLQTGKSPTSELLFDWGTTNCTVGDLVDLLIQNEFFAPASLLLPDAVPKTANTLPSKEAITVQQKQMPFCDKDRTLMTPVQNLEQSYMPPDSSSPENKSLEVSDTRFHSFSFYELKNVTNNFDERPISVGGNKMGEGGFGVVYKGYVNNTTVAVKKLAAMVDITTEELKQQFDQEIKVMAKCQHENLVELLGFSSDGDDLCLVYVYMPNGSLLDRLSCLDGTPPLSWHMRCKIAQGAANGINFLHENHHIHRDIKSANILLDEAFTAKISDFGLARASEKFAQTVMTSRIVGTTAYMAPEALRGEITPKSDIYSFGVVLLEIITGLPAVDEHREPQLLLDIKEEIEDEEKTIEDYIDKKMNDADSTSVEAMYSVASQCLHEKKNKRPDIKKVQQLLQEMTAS

[3] = Kinetic solubility assay (CLND), pH 6.8; assay type: physicochemical; details: aqueous buffer, kinetic from dmso stock; potassium phosphate buffer pH 6.8, 2% DMSO, 24 hours at ambient temperature

Chain of MDR1 (P08183 whole entry): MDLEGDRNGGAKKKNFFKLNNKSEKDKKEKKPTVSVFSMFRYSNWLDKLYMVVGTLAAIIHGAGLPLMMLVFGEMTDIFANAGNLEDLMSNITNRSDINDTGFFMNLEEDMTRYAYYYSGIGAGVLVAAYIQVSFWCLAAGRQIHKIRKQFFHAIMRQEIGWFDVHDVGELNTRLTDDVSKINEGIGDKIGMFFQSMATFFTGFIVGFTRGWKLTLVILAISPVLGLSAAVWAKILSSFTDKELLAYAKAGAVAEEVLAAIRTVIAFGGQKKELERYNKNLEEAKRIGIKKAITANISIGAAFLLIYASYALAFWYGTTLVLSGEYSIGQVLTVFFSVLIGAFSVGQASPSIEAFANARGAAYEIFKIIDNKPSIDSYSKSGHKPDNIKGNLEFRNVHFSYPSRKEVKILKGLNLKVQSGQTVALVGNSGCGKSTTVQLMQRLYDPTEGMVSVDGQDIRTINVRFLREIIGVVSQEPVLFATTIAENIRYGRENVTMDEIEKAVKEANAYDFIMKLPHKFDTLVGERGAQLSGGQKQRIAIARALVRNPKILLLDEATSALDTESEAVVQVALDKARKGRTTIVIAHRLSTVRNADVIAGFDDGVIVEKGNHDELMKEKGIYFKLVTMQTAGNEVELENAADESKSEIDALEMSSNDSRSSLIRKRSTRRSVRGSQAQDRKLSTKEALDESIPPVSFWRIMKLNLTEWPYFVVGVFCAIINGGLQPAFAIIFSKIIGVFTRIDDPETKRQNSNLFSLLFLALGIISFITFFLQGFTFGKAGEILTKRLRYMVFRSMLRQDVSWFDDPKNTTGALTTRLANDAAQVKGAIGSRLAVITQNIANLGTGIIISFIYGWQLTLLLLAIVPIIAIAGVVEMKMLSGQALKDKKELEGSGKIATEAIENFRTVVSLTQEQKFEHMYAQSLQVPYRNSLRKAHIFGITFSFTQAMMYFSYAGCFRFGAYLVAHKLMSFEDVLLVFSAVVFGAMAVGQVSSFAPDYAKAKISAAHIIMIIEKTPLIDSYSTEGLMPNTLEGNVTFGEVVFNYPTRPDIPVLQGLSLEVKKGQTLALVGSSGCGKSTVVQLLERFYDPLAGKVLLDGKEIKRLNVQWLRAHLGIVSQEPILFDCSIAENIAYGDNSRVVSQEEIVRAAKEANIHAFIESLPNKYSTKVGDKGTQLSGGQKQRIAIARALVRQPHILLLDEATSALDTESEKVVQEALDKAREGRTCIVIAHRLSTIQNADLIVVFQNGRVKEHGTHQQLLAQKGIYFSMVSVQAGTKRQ

Row | Structure (SMILES) | efflux ratio at 120 min, 1 μM [1] | IC50 [2] | solubility kinetic at 24 h [3]
1 | C[C@H]1C[C@H]1n1cccc(NC(=O)c2cn3cc(C45COC(C)(C4)C5)nc3nc2OC2CCC2)c1=O [Example 189, 7-cyclobutoxy-2-(1-methyl-2-oxabicyclo[2.1.1]hexan-4-yl)-N-(1-((1R,2S)-2-methylcyclopropyl)-2-oxo-1,2-dihydropyridin-3-yl)imidazo[1,2-a]pyrimidine-6-carboxamide trifluoroacetate] | 3.4 | 34.6 nM | –
2 | CC(C)Oc1nc2nc(C34COC(C)(C3)C4)cn2cc1C(=O)Nc1cccn([C@@H]2CC2(C)C)c1=O (single isomer, unassigned) [Example 78] | 2.1 | 11 nM | –
3 | CC[C@@H](C)Oc1nc2nc([C@]34CC[C@](C)(C3)OC4)cn2cc1C(=O)Nc1cccn(C2CC2)c1=O [Example 51, 7-((R)-sec-butoxy)-N-(1-cyclopropyl-2-oxo-1,2-dihydropyridin-3-yl)-2-((1R,4S)-1-methyl-2-oxabicyclo[2.2.1]heptan-4-yl)imidazo[1,2-a]pyrimidine-6-carboxamide] | 3.1 | 1.8 nM | –
4 | CC[C@@H](C)Oc1nc2nc(C34COC(C)(C3)C4)cn2cc1C(=O)Nc1cccn([C@@H]2C[C@@H]2F)c1=O (mixture of isomers) [Example 41, 7-((R)-sec-butoxy)-N-(1-(cis-2-fluorocyclopropyl)-2-oxo-1,2-dihydropyridin-3-yl)-2-(1-methyl-2-oxabicyclo[2.1.1]hexan-4-yl)imidazo[1,2-a]pyrimidine-6-carboxamide] | 9.1 | 0.6 nM | –
5 | CC(C)Oc1cc2nc([C@]34CC[C@](C)(C3)OC4)cn2cc1C(=O)Nc1cccn([C@@H]2C[C@@H]2C)c1=O [Example 181, 7-isopropoxy-2-((1R,4S)-1-methyl-2-oxabicyclo[2.2.1]heptan-4-yl)-N-(1-((1R,2S)-2-methylcyclopropyl)-2-oxo-1,2-dihydropyridin-3-yl)imidazo[1,2-a]pyridine-6-carboxamide trifluoroacetate] | 5.3 | 24.9 nM | –
6 | CC(C)Oc1c(C(=O)Nc2cccn([C@@H]3C[C@@H]3F)c2=O)cn2cc([C@]34CC[C@](C)(C3)OC4)nc2c1F (single isomer, unassigned) [Example 126] | 4.4 | 66.5 nM | –
7 | CC(C)Oc1c(C(=O)Nc2cccn([C@@H]3C[C@H]3C)c2=O)cn2cc(C34COC(C)(C3)C4)nc2c1F [Example 147, 8-fluoro-7-isopropoxy-2-(1-methyl-2-oxabicyclo[2.1.1]hexan-4-yl)-N-(1-((1R,2R)-2-methylcyclopropyl)-2-oxo-1,2-dihydropyridin-3-yl)imidazo[1,2-a]pyridine-6-carboxamide] | 1.5 | 15.9 nM | –
8 | CC(C)Oc1c(C(=O)Nc2ccnn(C3CC3)c2=O)cn2cc(C34COC(C)(C3)C4)nc2c1F [Example 73, N-(2-cyclopropyl-3-oxo-2,3-dihydropyridazin-4-yl)-8-fluoro-7-isopropoxy-2-(1-methyl-2-oxabicyclo[2.1.1]hexan-4-yl)imidazo[1,2-a]pyridine-6-carboxamide] | 1 | 14 nM | –
9 | CC(C)Oc1cc2nc(C34COC(C)(C3)C4)cn2cc1C(=O)Nc1cccn([C@@H]2C[C@@H]2C)c1=O [Example 133, 7-isopropoxy-2-(1-methyl-2-oxabicyclo[2.1.1]hexan-4-yl)-N-(1-((1R,2S)-2-methylcyclopropyl)-2-oxo-1,2-dihydropyridin-3-yl)imidazo[1,2-a]pyridine-6-carboxamide] | 4.3 | 21.4 nM | –
10 | CC[C@@H](C)Oc1nc2nc(C34COC(C)(C3)C4)cn2cc1C(=O)Nc1cccn([C@@H]2C[C@@H]2F)c1=O (single isomer, unassigned) [Example 57] | 7.9 | 23 nM | –
11 | CC(C)Oc1cc2nc([C@@]34CC[C@@](C)(C3)OC4)cn2cc1C(=O)Nc1cccn([C@@H]2C[C@@H]2C)c1=O [Example 183, 7-isopropoxy-2-((1S,4R)-1-methyl-2-oxabicyclo[2.2.1]heptan-4-yl)-N-(1-((1R,2S)-2-methylcyclopropyl)-2-oxo-1,2-dihydropyridin-3-yl)imidazo[1,2-a]pyridine-6-carboxamide trifluoroacetate] | 2.9 | 15.4 nM | –
12 | O=C(Nc1cccn([C@@H]2C[C@@H]2F)c1=O)c1cn2cc(C34COC(C3)C4)nc2nc1OC1CCC1 (single isomer, unassigned) [Example 166] | 2.6 | 41 nM | –
13 | CC(C)Oc1c(C(=O)Nc2cccn([C@@H]3C[C@@H]3F)c2=O)cn2cc([C@@]34CC[C@@](C)(C3)OC4)nc2c1F (single isomer, unassigned) [Example 124] | – | 45.5 nM | –
14 | CC[C@@H](C)Oc1nc2nc(C34CCC(CF)(C3)OC4)cn2cc1C(=O)Nc1cccn(C2CC2)c1=O (stereo partly drawn) [Example 55, 7-((R)-sec-butoxy)-N-(1-cyclopropyl-2-oxo-1,2-dihydropyridin-3-yl)-2-(1-(fluoromethyl)-2-oxabicyclo[2.2.1]heptan-4-yl)imidazo[1,2-a]pyrimidine-6-carboxamide] | 4.7 | 1.1 nM | –

The remaining lines, values ahead:

Row | efflux ratio at 120 min, 1 μM [1] | IC50 [2] | solubility kinetic at 24 h [3] | Structure (SMILES)
15 | 10.3 | 1.3 nM | – | CCOc1nc2nc(C34COC(C)(C3)C4)cn2cc1C(=O)Nc1cccn(C2CC2)c1=O [Example 43, N-(1-cyclopropyl-2-oxo-1,2-dihydropyridin-3-yl)-7-ethoxy-2-(1-methyl-2-oxabicyclo[2.1.1]hexan-4-yl)imidazo[1,2-a]pyrimidine-6-carboxamide]
16 | 1.5 | 1.7 nM | – | CC(C)Oc1nc2nc([C@]34CC[C@](C)(C3)OC4)cn2cc1C(=O)Nc1cccn([C@@H]2CC23CC3)c1=O (single isomer, unassigned) [Example 153]
17 | 10.4 | 0.3 nM | – | CC(C)Oc1cc2nc([C@@]34CC[C@@](C)(C3)OC4)cn2cc1C(=O)Nc1cccn([C@H]2C[C@H]2F)c1=O (single isomer, unassigned) [Example 169]
18 | 2.6 | 1.2 nM | – | CC(C)Oc1nc2nc([C@@]34CC[C@@](C)(C3)OC4)cn2cc1C(=O)Nc1cccn([C@@H]2C[C@H]2C)c1=O (single isomer, unassigned) [Example 148]
19 | 1 | 2.7 nM | – | CC(C)Oc1nc2nc([C@@]34CC[C@@](C)(C3)OC4)cn2cc1C(=O)Nc1cccn([C@H]2CC23CC3)c1=O (single isomer, unassigned) [Example 150]
20 | 7 | 0.3 nM | – | CC(C)Oc1cc2nc(C34CCC(C3)OC4)cn2cc1C(=O)Nc1cccn(C2CC2)c1=O (stereo not shown) [Example 38, 2-(2-oxabicyclo[2.2.1]heptan-4-yl)-N-(1-cyclopropyl-2-oxo-1,2-dihydropyridin-3-yl)-7-isopropoxyimidazo[1,2-a]pyridine-6-carboxamide]
21 | 3.8 | 6.3 nM | – | CO[C@H]1C[C@@H]1n1cccc(NC(=O)c2cn3cc(C45COC(C)(C4)C5)nc3nc2OC(C)C)c1=O (single isomer, unassigned) [Example 138]
22 | 9.4 | 9 nM | – | CC[C@H](C)Oc1nc2nc(C34COC(C)(C3)C4)cn2cc1C(=O)Nc1cccn([C@@H]2C[C@@H]2F)c1=O (single isomer, unassigned) [Example 59]
23 | – | 0.5 nM | 39.9 µg/mL (≈ 80 µM) | CC(C)Oc1c(C(=O)Nc2cccn([C@H]3C[C@H]3F)c2=O)cn2cc([C@@]34CC[C@@](C)(C3)OC4)nc2c1F (single isomer, unassigned) [Example 125]
24 | 5.1 | 0.8 nM | – | CC(C)Oc1c(C(=O)Nc2cccn([C@@H]3C[C@@H]3F)c2=O)cn2cc(C34COC(C)(C3)C4)nc2c1F (racemic) [Example 91, (rac)-Cis-8-fluoro-N-(1-(2-fluorocyclopropyl)-2-oxo-1,2-dihydropyridin-3-yl)-7-isopropoxy-2-(1-methyl-2-oxabicyclo[2.1.1]hexan-4-yl)imidazo[1,2-a]pyridine-6-carboxamide]
25 | – | 0.4 nM | 43.2 µg/mL (≈ 90.5 µM) | CC(C)Oc1nc2nc([C@]34CC[C@](C)(C3)OC4)cn2cc1C(=O)Nc1cccn([C@@H]2C[C@H]2C)c1=O (single isomer, unassigned) [Example 141]
26 | 1.2 | 1.1 nM | – | CC(C)Oc1nc2nc([C@@]34CC[C@@](C)(C3)OC4)cn2cc1C(=O)Nc1cccn([C@@H]2CC23CC3)c1=O (single isomer, unassigned) [Example 151]
27 | 4.8 | 1.4 nM | – | CO[C@@H]1C[C@H]1n1cccc(NC(=O)c2cn3cc(C45COC(C)(C4)C5)nc3nc2OC(C)C)c1=O (single isomer, unassigned) [Example 137]
28 | – | 0.4 nM | 62 µg/mL | CC(C)Oc1cc2nc([C@@]34CC[C@@](C)(C3)OC4)cn2cc1C(=O)Nc1cccn(C2CC2F)c1=O (mixture of isomers) [Example 99, N-(1-(2-fluorocyclopropyl)-2-oxo-1,2-dihydropyridin-3-yl)-7-isopropoxy-2-((1S,4R)-1-methyl-2-oxabicyclo[2.2.1]heptan-4-yl)imidazo[1,2-a]pyridine-6-carboxamide]
29 | – | 1.2 nM | 37 µg/mL (≈ 77.5 µM) | CC(C)Oc1nc2nc([C@]34CC[C@](C)(C3)OC4)cn2cc1C(=O)Nc1cccn([C@H]2C[C@@H]2C)c1=O (single isomer, unassigned) [Example 142]
30 | 3 | 0.3 nM | – | CC(C)Oc1nc2nc([C@H]3CCCOC3)cn2cc1C(=O)Nc1cccn(C2CC2)c1=O (single isomer, unassigned) [Example 107]
31 | 7 | 0.5 nM | – | CC(C)Oc1nc2nc(C[C@H]3CCOC3)cn2cc1C(=O)Nc1cccn(C2CC2)c1=O (single isomer, unassigned) [Example 110]
